Experiment: Biochemical Assay: Test compounds were placed in a Greiner Bio-One (Monroe, N.C.) 1536-well black solid bottom assay plate. 200 millimolar (mM) Tris HCl, pH 7.4, 100 micromolar (μM) EDTA and 0.01% TWEEN-20, final concentration, was used as the assay buffer. The LDHA reagent was 2 nanomolar (nM) Human LDHA (Meridian Life Science, Inc., Memphis, Tenn.), final concentration, in assay buffer. The substrate reagent was 0.06 mM NADH and 0.2 mM sodium pyruvate, final concentration, in assay buffer. The resazurin/diaphorase coupling reagent was 0.037 mM resazurin and 0.133 milligrams per milliliter (mg/mL) diaphorase, final concentration, in assay buffer. The inhibition of LDHA activity was measured by fluorescence emission.

Row | Compound | IC50
1 | N[S+](=O)([O-])c1ccc(Cc2c(-c3cccc(-c4ccc(C(F)(F)C(F)(F)F)cc4)c3)nn(-c3nc(C(=O)O)cs3)c2CCC2CC2)cc1F | in the range around 550 nM
2 | N[S+](=O)([O-])c1ccc(Cc2c(-c3ccc(F)c(-c4ncc[nH]4)c3)nn(-c3nc(C(=O)O)cs3)c2CC2CC2)cc1F | < 100 nM
3 | N[SH+]([O-])c1ccc(Cc2c(-c3cccc(-c4ccc(C5CC5)c(F)c4)c3)nn(-c3nc(C(=O)O)cs3)c2CC2CC2)cc1F (stereo unspecified) | in the range around 29000 nM
4 | N[SH+]([O-])c1ccc(Cc2c(-c3cccc(-c4ccc(Cl)c(F)c4)c3)nn(-c3nc(C(=O)O)cs3)c2CC2CC2)cc1F (stereo unspecified) | < 100 nM
5 | CC(C)c1ccc(-c2cccc(-c3nn(-c4nc(C(=O)O)cs4)c(CC4CC4)c3Cc3ccc([SH+](N)[O-])c(F)c3)c2)cc1 (stereo unspecified) | < 100 nM
6 | Cc1ncc(-c2cc(-c3nn(-c4nc(C(=O)O)cs4)c(CC4CC4)c3Cc3ccc([SH+](N)[O-])c(F)c3)ccc2F)[nH]1 (stereo unspecified) | < 100 nM
7 | Cc1ccc(C#Cc2cccc(-c3nn(-c4nc(C(=O)NC#N)cs4)c(CC4CC4)c3Cc3ccc([SH+](N)[O-])c(F)c3)c2)s1 (stereo unspecified) | in the range around 29000 nM
8 | N[SH+]([O-])c1ccc(Cc2c(-c3cccc(-c4cc(F)cc(F)c4)c3)nn(-c3nc(C(=O)O)cs3)c2CC2CC2)cc1F (stereo unspecified) | < 100 nM
9 | NS(=O)(=O)c1ccc(Cc2c(-c3cccc(-c4nc5ccccc5[nH]4)c3)nn(-c3nc(C(=O)O)cs3)c2CC2CC2)cc1F | < 100 nM
10 | COc1ccc(-c2cccc(-c3nn(-c4nc(C(=O)O)cs4)c(CC4CC4)c3Cc3ccc([SH+](N)[O-])c(F)c3)c2)cc1Cl (stereo unspecified) | in the range around 550 nM
11 | CC(C)c1ccc(-c2cccc(-c3nn(-c4nc(C(=O)O)cs4)c(CCC4CC4)c3Cc3ccc([S+](N)(=O)[O-])c(F)c3)c2)cc1 | in the range around 550 nM
12 | N[SH+]([O-])c1ccc(Cc2c(-c3cccc(-c4ccc(Cl)cc4)c3)nn(-c3nc(C(=O)O)cs3)c2CC2CC2)cc1F (stereo unspecified) | < 100 nM
13 | Cc1ccc(-c2cccc(-c3nn(-c4nc(C(=O)O)cs4)c(CC4CC4)c3Cc3ccc([SH+](N)[O-])c(F)c3)c2)cc1F (stereo unspecified) | < 100 nM
14 | COc1ccc(-c2cccc(-c3nn(-c4nc(C(=O)O)cs4)c(CC4CC4)c3Cc3ccc([SH+](N)[O-])c(F)c3)c2)cc1C (stereo unspecified) | < 100 nM
15 | Cc1cc(-c2cccc(-c3nn(-c4nc(C(=O)O)cs4)c(CC4CC4)c3Cc3ccc([SH+](N)[O-])c(F)c3)c2)ccc1Cl (stereo unspecified) | in the range around 29000 nM
16 | N[S+](=O)([O-])c1ccc(Cc2c(-c3cccc(-c4ccc5c(c4)CCCC5)c3)nn(-c3nc(C(=O)O)cs3)c2CC2CC2)cc1F | in the range around 550 nM
17 | Cc1ccc(C#Cc2cc(-c3nn(-c4nc(C(=O)O)cs4)c(CC4CC4)c3Cc3ccc([SH+](N)[O-])c(F)c3)ccc2F)s1 (stereo unspecified) | < 100 nM
18 | Cc1ccc(C#Cc2cccc(-c3nn(-c4nc(C(N)=O)cs4)c(CC4CC4)c3Cc3ccc([SH+](N)[O-])c(F)c3)c2)s1 (stereo unspecified) | in the range around 29000 nM
19 | N[S+](=O)([O-])c1ccc(Cc2c(-c3ccc(F)c(-c4nc5ccccc5[nH]4)c3)nn(-c3nc(C(=O)O)cs3)c2CC2CC2)cc1F | < 100 nM
20 | CC(C)Cc1ccc(-c2cccc(-c3nn(-c4nc(C(=O)O)cs4)c(CCC4CC4)c3Cc3ccc([S+](N)(=O)[O-])c(F)c3)c2)cc1 | in the range around 550 nM
21 | CN(C)c1ccc(-c2cccc(-c3nn(-c4nc(C(=O)O)cs4)c(CC4CC4)c3Cc3ccc([SH+](N)[O-])c(F)c3)c2)cc1 (stereo unspecified) | < 100 nM
22 | Cc1ccc(C#Cc2cccc(-c3nn(-c4nc(CO)cs4)c(CC4CC4)c3Cc3ccc([SH+](N)[O-])c(F)c3)c2)s1 (stereo unspecified) | > 57000 nM
23 | CC(C)(C)c1ccc(-c2cccc(-c3nn(-c4nc(C(=O)O)cs4)c(CC4CC4)c3Cc3ccc([SH+](N)[O-])c(F)c3)c2)cc1 (stereo unspecified) | in the range around 550 nM
24 | N[SH+]([O-])c1ccc(Cc2c(-c3cccc(-c4cccc(Cl)c4)c3)nn(-c3nc(C(=O)O)cs3)c2CC2CC2)cc1F (stereo unspecified) | < 100 nM
25 | N#Cc1ccc(-c2cccc(-c3nn(-c4nc(C(=O)O)cs4)c(CC4CC4)c3Cc3ccc([SH+](N)[O-])c(F)c3)c2)cc1 (stereo unspecified) | < 100 nM
26 | CC(C)c1cccc(-c2cccc(-c3nn(-c4nc(C(=O)O)cs4)c(CC4CC4)c3Cc3ccc([SH+](N)[O-])c(F)c3)c2)c1 (stereo unspecified) | < 100 nM

— ChEMBL document CHEMBL5728348, “1 H-pyrazol-1-yl-thiazoles as inhibitors of lactate dehydrogenase and methods of use thereof” (2021)
